Results: article PMC3561413 (PLoS ONE, 2013)

Assays:
[1] = system: SET2 cells; assay: Cell cycle distribution analysis by flow cytometry, SET2; type: cell-based; conditions: Homo sapiens, SET-2; SET2, median concentration; read-out: concentration giving 50% reduction of cells in the S-phase compared to controls
Procedure: (§1) Ba/F3-EPOR cells, both wt and VF, HEL and SET2 cells were plated at 2×10^4 in 96-well culture tissue plates with increasing concentrations of the drug(s), in triplicate, and the amount of viable cells was assessed at 48 h using the WST-1 assay (Roche, USA) after normalization to wells containing an equivalent volume of vehicle (DMSO) only. For clonogenic assay, 5×10^3 cells were plated in 0.5% agar in medium supplemented with 10% FBS (plus 1 U/mL EPO in case of Ba/F3-EPOR wt cells); variable amount of the drug(s) (or an equivalent volume of vehicle in control plates) was added once at the beginning of culture. Colonies were enumerated by inverted microscopy after 7 day incubation, in duplicate. Quantification of apoptotic cells was accomplished by flow cytometry using the Annexin-V-FLUOS Staining kit (Roche); at least 20,000 events were acquired. For cell cycle distribution analysis by flow cytometry, 1×10^6 cells were treated with ethanol 95%, RNase 10 µg/mL and propidium iodide […].

[2] = system: Ba/F3-EPOR VF cells (JAK2V617F); assay: Inhibition of proliferation assay (WST-1, 48 h), Ba/F3-EPOR VF; type: cell-based; conditions: Mus musculus
Procedure: as §1

[3] = system: BFU-E from PMF patients; assay: Colony assay for hematopoietic progenitors, BFU-E, PMF patients; type: cell-based; conditions: Homo sapiens, 336 h; MF (n = 10), day 14; read-out: IC50, BFU-E colony formation
Procedure: (§2) Figure 3 mTOR and JAK2 inhibitors preferentially suppress colony formation from hematopoietic progenitors of MPN patients as compared to healthy controls. Mononuclear cells from patients with PV or PMF (n = 10 each) or control subjects (n = 10) were plated at 10^5/mL in cytokine-supplemented methylcellulose medium for the growth of erythroid burst-forming unit (BFU-E) and granulocyte-macrophage colony-forming unit (CFU-GM), and CD34^+ cells (5×10^4/mL) were plated in collagen-based medium for megakaryocyte colony-forming unit (CFU-Mk). […] Colonies were enumerated on day 14 and expressed as a percentage of the colonies grown in control plates containing vehicle only.

[4] = system: HEL cells (JAK2V617F mutated); assay: Clonogenic assay in agar, HEL; type: cell-based; conditions: Homo sapiens, Table 1
Procedure: as §1

[5] = system: CFU-GM from PV patients; assay: Colony assay for hematopoietic progenitors, CFU-GM, PV patients; type: cell-based; conditions: Homo sapiens, 336 h, PV (n = 10), day 14, read-out: IC50, CFU-GM colony formation
Procedure: as §2

[6] = system: Ba/F3-EPOR VF cells; assay: Apoptosis (Annexin V flow cytometry), Ba/F3-EPOR VF; type: cell-based, mouse; conditions: for IC50: Mus musculus, 48 h, median, read-out: IC50 for apoptosis (Annexin V positive cells)
Procedure: as §1
(§3) Results shown are the Mean±SD of at least three experiments. In panel B, the percentage of Annexin V-positive cells was measured in cultures of Ba/F3-EPOR VF cells exposed to varying amount of the drugs for 48 h; percentage was calculated after subtraction of background apoptosis in cells incubated without drug. Results shown are the Mean±SD of at least three experiments. (TIF) Click here for additional data file.

[7] = system: CFU-Mk from PMF patients; assay: Colony assay for hematopoietic progenitors, CFU-Mk, PMF patients; type: cell-based; conditions: Homo sapiens, 336 h; MF (n = 10), day 14; read-out: IC50, CFU-Mk colony formation
Procedure: as §2

[8] = system: CFU-GM from PMF patients; assay: Colony assay for hematopoietic progenitors, CFU-GM, PMF patients; type: cell-based; conditions: Homo sapiens, 336 h, MF (n = 10), day 14, read-out: IC50, CFU-GM colony formation
Procedure: as §2

[9] = system: CFU-Mk from PV patients; assay: Colony assay for hematopoietic progenitors, CFU-Mk, PV patients; type: cell-based; conditions: Homo sapiens, 336 h; PV (n = 10), day 14; read-out: IC50, CFU-Mk colony formation
Procedure: as §2

[10] = system: CFU-Mk from healthy controls; assay: Colony assay for hematopoietic progenitors, CFU-Mk, healthy controls; type: cell-based; conditions: Homo sapiens, 336 h; Ctrl (n = 10), day 14; read-out: IC50, CFU-Mk colony formation
Procedure: as §2

[11] = system: HEL cells (JAK2V617F mutated); assay: Inhibition of proliferation assay (WST-1, 48 h), HEL; type: cell-based; conditions: Homo sapiens
Procedure: as §1

[12] = system: Ba/F3-EPOR wt cells (JAK2 wild-type); assay: Inhibition of proliferation assay (WST-1, 48 h), Ba/F3-EPOR wt; type: cell-based; conditions: Mus musculus, 1 U/mL EPO, mean±SD, read-out: IC50 of cell proliferation
Procedure: as §1

[13] = system: Ba/F3-EPOR VF cells (JAK2V617F); assay: Clonogenic assay in agar, Ba/F3-EPOR VF; type: cell-based; conditions: Mus musculus, 168 h, semisolid culture, 7 days, single drug, read-out: IC50 of colony formation (clonogenic assay)
Procedure: as §1

[14] = system: Ba/F3-EPOR wt cells (JAK2 wild-type); assay: Clonogenic assay in agar, Ba/F3-EPOR wt; type: cell-based; conditions: Mus musculus, 168 h, semisolid culture, 7 days, 1 U/mL EPO, read-out: IC50 of colony formation (clonogenic assay)
Procedure: as §1

[15] = system: Ba/F3-EPOR VF cells; assay: Cell cycle distribution analysis by flow cytometry (propidium iodide), Ba/F3-EPOR VF; type: cell-based; conditions: Mus musculus, after 24 hours, median value, read-out: concentration giving 50% reduction of the cells in the S-phase compared to untreated cells
Procedure: as §1, §3

[16] = system: BFU-E from healthy controls; assay: Colony assay for hematopoietic progenitors, BFU-E, healthy controls; type: cell-based; conditions: Homo sapiens, 336 h; Ctrl (n = 10), day 14; read-out: IC50, BFU-E colony formation
Procedure: as §2

[17] = system: SET2 cells (JAK2V617F mutated); assay: Inhibition of proliferation assay (WST-1, 48 h), SET2; type: cell-based; conditions: Homo sapiens, SET-2, SET2, 48 h
Procedure: as §1

[18] = system: CFU-GM from healthy controls; assay: Colony assay for hematopoietic progenitors, CFU-GM, healthy controls; type: cell-based; conditions: Homo sapiens, 336 h, Ctrl (n = 10), day 14, read-out: IC50, CFU-GM colony formation
Procedure: as §2

[19] = system: BFU-E from PV patients; assay: Colony assay for hematopoietic progenitors, BFU-E, PV patients; type: cell-based; conditions: Homo sapiens, 336 h; PV (n = 10), day 14; read-out: IC50, BFU-E colony formation
Procedure: as §2

[20] = system: CD34+ cells from PMF patients; assay: CD34+ proliferation assay (WST-1, 48 h), PMF patients; type: cell-based; conditions: Homo sapiens, CD34+ cell; PMF patients n = 6, 48 h, cytokine cocktail
Procedure: (§4) To measure the drug-induced inhibition of CD34^+ cell growth, purified cells were plated at 3·10^4 cells/well in IDMEM supplemented with cytokines and variable amounts of the drugs were added. Cell proliferation was evaluated using the WST-1 Assay (Roche, USA) after 48 h and results were normalized to wells containing vehicle only.
(§5) CD34^+ cells from patients with PMF (n = 6) or control subjects (Ctr; n = 5) were plated at 2×10^5/mL in 96-well culture tissue plates with increasing concentrations of the drugs, in triplicate; viable cells were assessed after 48 hrs using the WST-1 assay and normalized to wells containing an equivalent volume of vehicle (DMSO) only.

[21] = system: CD34+ cells from healthy controls; assay: CD34+ proliferation assay (WST-1, 48 h), healthy controls; type: cell-based; conditions: Homo sapiens, CD34+ cell; healthy subjects n = 5, 48 h, cytokine cocktail
Procedure: as §4, §5

[22] = system: SET2 cells (JAK2V617F mutated); assay: Clonogenic assay in agar, SET2; type: cell-based; conditions: Homo sapiens, SET-2
Procedure: as §1

[23] = system: EEC from peripheral blood mononuclear cells of PV patients; assay: EEC assay (erythropoietin-independent erythroid colonies), PV patients; conditions: Homo sapiens, PBMC, 240 h, read-out: IC50 of EEC growth
[24] = system: SET2 cells; assay: Apoptosis (Annexin V flow cytometry), SET2; type: cell-based; conditions: Homo sapiens, SET-2; SET2, median
Procedure: as §1

[25] = BaF3, 48 h, Ba/F3 VF liquid culture maintained with Epo 1 U/mL, read-out: IC50 of cell proliferation in the presence of Epo
[26] = Ba/F3-EPOR VF, 48 h, single drug, cytokine-free medium, mean±SD, read-out: IC50 of cell proliferation
[27] = Table 3, read-out: IC50, proliferation, single drug
[28] = read-out: IC50, proliferation assay
[29] = SET2, Table 1, read-out: IC50, clonogenic assay
[30] = SET2, Table 3, read-out: IC50, clonogenic potential, single drug
[31] = SET2, running text b32, read-out: concentration preventing colony formation (mean value)

Row | SMILES | IC50 [1] [nM] | IC50 [2, 25] [nM] | IC50 [2, 26] [nM] | IC50 [3] [nM] | IC50 [4] [nM] | IC50 [5] [nM] | IC50 [6] [nM] | IC50 [7] [nM] | IC50 [8] [nM] | IC50 [9] [nM] | IC50 [10] [nM] | IC50 [11] [nM] | IC50 [12] [nM] | IC50 [15] [nM] | IC50 [16] [nM] | IC50 [18] [nM] | IC50 [20] [nM] | IC50 [21] [nM] | IC50 [23] [nM] | IC50 [24] [nM] | further results
1 | Cc1cc(Nc2nc(N[C@@H](C)c3ncc(F)cn3)ncc2Cl)n[nH]1 [AZD1480] | 1500 | 707 ± 11 | 313 ± 23 | 27 ± 8 | 460 ± 30 | 46 ± 5 | 800 | 59 ± 3 | 9 ± 3 | 44 ± 2 | 400 ± 12 | 860 ± 20 | 752 ± 30 | 1200 | 226 ± 17 | 193 ± 13 | 474 ± 30 | 891 ± 100 | 19 ± 2 | 400 | IC50 [13]: 19 ± 11 nM; IC50 [14]: 750 ± 100 nM; IC50 [17, 27]: 90 ± 5 nM; IC50 [17, 28]: 90 ± 5 nM; IC50 [19]: 135 ± 19 nM; IC50 [22, 29]: 35 ± 10 nM; IC50 [22, 30]: 35 ± 10 nM; IC50 [22, 31]: 35 nM
2 | CO[C@H]1C[C@@H]2CC[C@@H](C)[C@@](O)(O2)C(=O)C(=O)N2CCCC[C@H]2C(=O)O[C@H]([C@H](C)C[C@@H]2CC[C@@H](OCCO)[C@H](OC)C2)CC(=O)[C@H](C)/C=C(\C)[C@@H](O)[C@@H](OC)C(=O)[C@H](C)C[C@H](C)/C=C/C=C/C=C/1C [RAD001, Everolimus] | 33000 | 1230 | 651 ± 50 | 42 ± 10 | 930 ± 10 | 75 ± 4 | 5000 | 44 ± 5 | 46 ± 13 | 50 ± 5 | 572 ± 13 | 14000 ± 2800 | 11000 | 6500 | 432 ± 22 | 335 ± 16 | 271 ± 100 | > 5000 | 15 ± 10 | 38000 | drug concentration at which an increase of apoptotic cells became appreciable ([6]; followed by a plateau): > 3.3 µM; IC50 [13]: 4 ± 2 nM; IC50 [14]: 22 ± 10 nM; IC50 [17, 27]: 17000 nM; IC50 [17, 28]: 17000 nM; IC50 [19]: 91 ± 15 nM; IC50 [22, 29]: 44 ± 15 nM; IC50 [22, 30]: 44 ± 15 nM; IC50 [22, 31]: 44 nM
3 | N#CC[C@H](C1CCCC1)n1cc(-c2ncnc3[nH]ccc23)cn1 [Ruxolitinib, ruxolitinib] | 10000 |  |  | 46 ± 10 |  | 39 ± 6 | 1300 | 4 ± 3 | 43 ± 4 | 4 ± 2 | 12 ± 5 |  |  | 1870 | 167 ± 70 | 209 ± 40 | 840 ± 300 | > 5000 | 1.8 ± 1 | 500 | 
